Results from article PMC3033209 (Journal of applied microbiology, 2009).

Biological target: T1, β-glucosidase from L. brevis SK3 (Levilactobacillus brevis, UniProt Q03P52)
T1 sequence (Q03P52 1-751): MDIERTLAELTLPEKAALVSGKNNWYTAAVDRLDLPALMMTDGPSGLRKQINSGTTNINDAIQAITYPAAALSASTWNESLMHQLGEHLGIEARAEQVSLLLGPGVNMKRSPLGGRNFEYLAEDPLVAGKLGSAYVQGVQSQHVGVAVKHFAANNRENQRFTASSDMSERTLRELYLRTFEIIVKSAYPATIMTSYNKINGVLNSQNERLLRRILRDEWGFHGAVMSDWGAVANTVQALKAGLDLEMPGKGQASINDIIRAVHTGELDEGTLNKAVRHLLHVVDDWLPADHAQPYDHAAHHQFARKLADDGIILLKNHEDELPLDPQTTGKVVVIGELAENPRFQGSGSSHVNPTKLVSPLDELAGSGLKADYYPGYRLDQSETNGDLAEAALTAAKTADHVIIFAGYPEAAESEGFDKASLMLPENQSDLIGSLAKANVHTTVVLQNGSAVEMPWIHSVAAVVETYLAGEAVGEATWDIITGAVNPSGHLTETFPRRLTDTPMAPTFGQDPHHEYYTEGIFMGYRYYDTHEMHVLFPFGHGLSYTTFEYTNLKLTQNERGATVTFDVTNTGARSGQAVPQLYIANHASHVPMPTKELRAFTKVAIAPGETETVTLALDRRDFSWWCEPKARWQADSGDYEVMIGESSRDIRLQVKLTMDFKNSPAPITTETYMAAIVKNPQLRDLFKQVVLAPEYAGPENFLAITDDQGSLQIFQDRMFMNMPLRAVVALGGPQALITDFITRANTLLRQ
Experiment: standard glucosidase assay, p-nitrophenol at […] nm after stop
Assay type: biochemical
Details: inhibitor, 10 mM pNPβGlc, pH 5.5, 37 °C, 10 min

| Compound | Relative activity (%) (200000 µM) | Relative activity (%) (10000 µM) |
| --- | --- | --- |
| O=C(O)[C@H](O)[C@@H](O)[C@H](O)[C@H](O)CO [Gluconic acid] | 17% | – |
| O=C1O[C@H](CO)[C@@H](O)[C@H](O)[C@H]1O [Glucono-δ-lactone] | – | 14% |
| OC[C@H]1OC(O)[C@H](O)[C@@H](O)[C@@H]1O (stereo partly drawn) [Glucose] | 59% | – |
